Results reported in patent publication US9585958B2, “Compositions and methods for reducing lactate levels” (The Regents of the University of California, priority 2013, dated 2017).

What was measured:
[1] = Log D measurements (octanol/PBS, 13C NMR); type: physicochemical; conditions: octanol / 1×PBS pH 7.4, 16 h shaking
Procedure: 45 μmoles of ABA and 3-^13C-sodium L-lactate dissolved in 500 μL of 1×PBS at pH 7.4 were added to 500 μL of octanol and vigorously shaken for 16 h and then centrifuged for 2 min at 10,000×Gs to extract PBS. A 200 μL of D2O along with 188.7 μmoles (10 μL of 99.8%) of acetonitrile was added to the PBS and a carbon NMR was performed with 16 scans. The area under the curve for the NMR traces obtained was calculated using Mest-ReC software. Similarly, a carbon NMR was performed with 16 scans on a solution containing 45 μmoles of ABA, 45 μmoles of 3-^13C-sodium L-lactate dissolved in 500 μL of 1×PBS at pH 7.4 along with 200 μL of D2O and with 188.7 μmoles (10 μL of 99.8%) of acetonitrile. Area under the curve for the NMR traces obtained was calculated using Mest-ReC software. Acetonitrile peak at δ=1.47 was used as reference.
Furthermore, as controls, 3-^13C-sodium L-lactate dissolved in 500 μL of 1×PBS at pH 7.4 was added to 500 μL of octanol and vigorously shaken for 16 h and then centrifuged for 2 min at 10,000×Gs to extract PBS. A 200 μL of D2O along with 188.7 μmoles (10 μL of 99.8%) of acetonitrile was added to the PBS and a carbon NMR was performed with 16 scans. The area under the curve for the NMR traces obtained was calculated using Mest-ReC software. […] Area under the curve for the NMR traces obtained was calculated using Mest-ReC software.

[2] = Permeation through DMPC liposomes (lactate assay kit); type: in vitro ADME; conditions: 112 mM
Procedure: It was investigated whether ABA can enhance lactate membrane permeability. Liposomes were generated from 1,2-dimyristoyl-sn-glycero-3-phosphocholine (DMPC), by evaporating 400 μL of 1 mg/mL of DMPC in chloroform in a 100 mL glass flask to completion; and the lipids were re-suspended in 400 μL PBS, thereby forming the liposomes. 50 μL of the liposomes and 50 μL of 112 mM ABA premixed with lactate were then added to the wells of the 96-well plate, and lactate assay kit was performed, according to the manufacturer's instructions. As controls, 50 μL of PBS and 50 μL of 112 mM ABA premixed with lactate were then added to the wells of the 96-well plate and lactate assay kit was performed, according to the manufacturer's instructions. Furthermore, for determining the permeability of lactate through the liposomes, 50 μL of the liposomes and 50 μL of 112 mM lactate were added to the wells of the 96-well plate, and lactate assay kit was performed, according to the manufacturer's instructions. As controls, 50 μL of PBS and 50 μL of 112 mM lactate were added to the wells of the 96-well plate and lactate assay kit was performed, according to the manufacturer's instructions.

C[C@H](O)C(=O)[O-].[Na+] [lactate, sodium L-lactate]
Log D [1]: −2 | permeation through liposomes [2]: did not permeate through the liposomes
